# Reference: US5373000A, “7Beta-(thiadiazolyl)-2-iminoacetamido-3cephem compounds” (Eisai Co., Ltd., priority 1985, dated 1994)
# Like-named read-outs stand apart in the source and are kept apart here.
# Tests used:
# Staph. aureus 209-P = test: Antibacterial activities, MIC; format: cell-based
# Pseud. aeruginosa EP-01 = test: Antibacterial activities, MIC; format: cell-based
# in vivo = settings: mouse, iv
# Escher. coli NIHJ = test: Antibacterial activities, MIC; format: cell-based
# Morg. morganii EP-14 = test: Antibacterial activities, MIC; format: cell-based
# Kleb Pneumoniae EK-6 = test: Antibacterial activities, MIC; format: cell-based
# Ser. marcescens ES-75 = test: Antibacterial activities, MIC; format: cell-based
# [1] = Staphylococcus aureus, read-out: MIC
# [2] = Pseudomonas aeruginosa, EP01, Pseud. aeruginosa EP-01, read-out: MIC
# [3] = Escherichia coli, read-out: MIC
# [4] = Morganella morganii, EP14, Morg. morganii EP-14, read-out: MIC
# [5] = Serratia marcescens, ES75, read-out: MIC
SMILES,MIC (Staph. aureus 209-P; [1]) [µg/mL],MIC (Pseud. aeruginosa EP-01; [2]) [µg/mL],LD50 (in vivo) [mg/kg],MIC (Escher. coli NIHJ; [3]) [µg/mL],MIC (Morg. morganii EP-14; [4]) [µg/mL],MIC (Kleb Pneumoniae EK-6; read-out: MIC) [µg/mL],MIC (Ser. marcescens ES-75; [5]) [µg/mL],MIC (Staph. aureus 209-P) [µg/mL],MIC (Pseud. aeruginosa EP-01; Pseud. aeruginosa EP-01) [µg/mL],MIC (Escher. coli NIHJ) [µg/mL],MIC (Morg. morganii EP-14; Morg. morganii EP-14) [µg/mL],MIC (Kleb Pneumoniae EK-6) [µg/mL],MIC (Ser. marcescens ES-75) [µg/mL]
CC[N+](C)(C/C=C/C1=C(C(=O)[O-])N2C(=O)[C@@H](NC(=O)/C(=N\OC)c3nsc(N)n3)[C@H]2SC1)CC(N)=O (stereo partly drawn) [Example 40],0.2,0.8,≥ 3000,≤ 0.025,≤ 0.025,≤ 0.025,0.05,,,,,,
"CO/N=C(\C(=O)N[C@@H]1C(=O)N2C(C(=O)[O-])=C(/C=C/C[N+](C)(C)Cc3nnco3)CS[C@H]12)c1nsc(N)n1 [Example 20, 7β-[2-(5-Amino-1,2,4-thiadiazol-3-yl)-(Z)-2-methoxyiminoacetamido]-3-[(E)-3-[(1,3,4-oxadiazol-2-yl)methyldimethylammonio]-1-propen-1-yl]-3-cephem-4-carboxylate]",0.4,0.8,≥ 3000,≤ 0.025,0.05,≤ 0.025,0.1,,,,,,
CO/N=C(\C(=O)N[C@@H]1C(=O)N2C(C(=O)[O-])=C(/C=C/C[N+]3(CCO)CCC(C(N)=O)CC3)CS[C@H]12)c1nsc(N)n1 (stereo partly drawn) [Example 44-2],,,,,,,,0.4,0.8,≤ 0.025,≤ 0.025,≤ 0.025,0.05
"CO/N=C(\C(=O)N[C@@H]1C(=O)N2C(C(=O)[O-])=C(/C=C/C[N+](C)(C)CCN(C)C)CS[C@H]12)c1nsc(N)n1 [Example 12, 7β-[2-(5-Amino-1,2,4-thiadiazol-3-yl)-(Z)-2-methoxyiminoacetamido]-3-[(E)-3-(2-dimethylaminoethyldimethylammonio)-1-propen-1-yl]-3-cephem-4-carboxylate]",0.4,1.56,,0.05,0.1,0.05,0.1,,,,,,
"CO/N=C(\C(=O)N[C@@H]1C(=O)N2C(C(=O)[O-])=C(/C=C/C[N+]3(C)CCC[C@H]3CO)CS[C@H]12)c1nsc(N)n1 (stereo partly drawn) [Example 3, 7β-[2-(5-Amino-1,2,4-thiadiazol-3-yl)-(Z)-2-methoxyiminoacetamido]-3-[(E)-3-((2S)-2-hydroxymethyl-1-methylpyrrolidinio)-1-propen-1-yl]-3-cephem-4-carboxylate]",0.2,1.56,,0.05,0.05,≤ 0.025,0.1,,,,,,
"CO/N=C(\C(=O)N[C@@H]1C(=O)N2C(C(=O)[O-])=C(/C=C/C[N+](C)(C)CC(N)=O)CS[C@H]12)c1nsc(N)n1 [Example 1, 7β-[2-(5-Amino-1,2,4-thiadiazol-3-yl)-(Z)-2-methoxyiminoacetamido]-3-[(E)-3-(carbamoylmethyldimethylammonio)-1-propen-1-yl)-3-cephem-4-carboxylate]",0.4,0.8,≥ 3000,0.05,0.05,0.05,0.1,,,,,,
CO/N=C(\C(=O)N[C@@H]1C(=O)N2C(C(=O)[O-])=C(/C=C/C[N+](C)(C)Cc3cnc[nH]3)CS[C@H]12)c1nsc(N)n1 [Example 22],0.2,1.56,,0.05,0.05,0.05,0.1,,,,,,
"CO/N=C(\C(=O)N[C@@H]1C(=O)N2C(C(=O)[O-])=C(/C=C/C[N+]3(C)CC=C(C(N)=O)CC3)CS[C@H]12)c1nsc(N)n1 (stereo partly drawn) [Example 34, 7β-[2-(5-Amino-1,2,4-thiadiazol-3-yl)-(Z)-2-methoxyiminoacetamido]-3-[(E)-3-(1-methyl-4-carbamoyl-1,2,3,6-tetrahydropyridinio)-1-propen-1-yl]-3-cephem-4-carboxylate]",0.2,0.8,,≤ 0.025,0.05,0.1,0.1,,,,,,
"CO/N=C(\C(=O)N[C@@H]1C(=O)N2C(C(=O)[O-])=C(/C=C/C[N+]3(C)CCS(=O)(=O)CC3)CS[C@H]12)c1nsc(N)n1 [Example 31, 7β-[2-(5-Amino-1,2,4-thiadiazol-3-yl)-(Z)-2-methoxyiminoacetamido]-3-[(E)-3-(1,1-dioxo-4-methyl-4-thiomorpholinio)-1-propen-1-yl]-3-cephem-4-carboxylate]",0.4,0.8,,0.05,0.05,≤ 0.025,0.1,,,,,,
"CO/N=C(\C(=O)N[C@@H]1C(=O)N2C(C(=O)[O-])=C(/C=C/C[N+]34CCOC(C)(C3)OCC4)CS[C@H]12)c1nsc(N)n1 [Example 41, 7β-[2-(5-Amino-1,2,4-thiadiazol-3-yl)-(Z)-2-methoxyiminoacetamide]-3-[(E)-3-(5-aza-1-methyl-2,8-diozabicyclo[3,3,1]nonan-5-io)-1-propenyl]-3-cephem-4-carboxylate]",0.4,1.56,≥ 3000,0.05,0.05,0.05,0.1,,,,,,
"CO/N=C(\C(=O)N[C@@H]1C(=O)N2C(C(=O)[O-])=C(/C=C/C[N+]34CCN(CC3)CC4)CS[C@H]12)c1nsc(N)n1 [Example 32, 7β-[2-(5-Amino-1,2,4-thiadiazol-3-yl)-(Z)-2-methoxyiminoacetamido]-3-[(E)-3-(1,4-diazabicyclo[2,2,2]octan-1-io)-1-propen-1-yl]-3-cephem-4-carboxylate]",0.2,0.8,,≤ 0.025,0.05,≤ 0.025,0.1,,,,,,
CO/N=C(\C(=O)N[C@@H]1C(=O)N2C(C(=O)[O-])=C(/C=C/C[N+]3(CCO)CCC(C(N)=O)CC3)CS[C@H]12)c1nsc(N)n1 (stereo partly drawn) [Example 44-1],0.4,0.8,,0.05,0.05,≤ 0.025,0.05,,,,,,
"CO/N=C(\C(=O)N[C@@H]1C(=O)N2C(C(=O)[O-])=C(/C=C/C[N+]3(C)CCN(C=N)CC3)CS[C@H]12)c1nsc(N)n1 [Example 28, 7β-[2-(5-Amino-1,2,4-thiadiazol-3-yl)-(Z)-2-methoxyiminoacetamido]-3-[(E)-3-(1-methyl-4-formimidoyl-1-piperazinio)-1-propen-1-yl]-3-cephem-4-carboxylate]",0.4,1.56,,0.05,0.1,0.1,0.2,,,,,,
CO/N=C(\C(=O)N[C@@H]1C(=O)N2C(C(=O)[O-])=C(/C=C/C[N+](C)(C)Cc3csc(N)n3)CS[C@H]12)c1nsc(N)n1 [Example 25],0.2,3.13,,≤ 0.025,0.05,0.03,0.03,,,,,,
"CO/N=C(\C(=O)N[C@@H]1C(=O)N2C(C(=O)[O-])=C(/C=C/C[N+](C)(C)CC(C)=O)CS[C@H]12)c1nsc(N)n1 [Example 17, 7β-[2-(5-Amino-1,2,4-thiadiazol-3-yl)-(Z)-2-methoxyiminoacetamido]-3-[(E)-3-(2-oxopropyldimethylammonio)-1-propen-1-yl]-3-cephem-4-carboxylate]",0.4,1.56,,0.05,0.1,0.05,0.1,,,,,,
"CO/N=C(\C(=O)N[C@@H]1C(=O)N2C(C(=O)[O-])=C(/C=C/C[N+](C)(C)[C@H](CO)C(N)=O)CS[C@H]12)c1nsc(N)n1 [Example 39, 7β-[2-(5-Amino-1,2,4-thiadiazol-3-yl)-(Z)-2-methoxyiminoacetamide]-3-[(E)-3-[(1R-carbamoyl-2-hydroxyethyl)dimethylammonio]-1-propenyl]-3-cephem-4-carboxylate]",0.4,0.8,≥ 3000,0.05,0.05,≤ 0.025,0.1,,,,,,
CO/N=C(\C(=O)N[C@@H]1C(=O)N2C(C(=O)[O-])=C(/C=C/C[N+](C)(C)[C@H](C)C(N)=O)CS[C@H]12)c1nsc(N)n1 [Example 42],0.2,0.8,,0.05,0.05,≤ 0.025,0.1,,,,,,
"CO/N=C(\C(=O)N[C@@H]1C(=O)N2C(C(=O)[O-])=C(/C=C/C[N+]3(C)CCN(C)CC3)CS[C@H]12)c1nsc(N)n1 [Example 33, 7β-[2-(5-Amino-1,2,4-thiadiazol-3-yl)-(Z)-2-methoxyiminoacetamido]-3-[(E)-3-(1,4-dimethyl-1-piperazinio)-1-propen-1-yl]-3-cephem-4-carboxylate]",0.2,1.56,≥ 3000,≤ 0.025,≤ 0.025,≤ 0.025,0.05,,,,,,
